The supplement of paper PMC5908809

Key:
[1] = system: normal NK cells expanded with K562-aAPC; test: percent inhibition of viability; higher = more inhibition; details: 72 h, IL-2 2.5 ng/mL
Method: (§1)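 Drug sensitivity and resistance testing on K562-aAPC-expanded normal NK cells: 5 concentrations (10-fold steps over a 10,000-fold range), 72 h at 37 °C, viability by CellTiter-Glo normalised to DMSO and benzethonium chloride controls; DSS from the fitted curve.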

[2] = system: NK-92 (IL-2 2.5 ng/mL); test: as above; details: 72 h
[3] = system: KHYG-1 (IL-2 2.5 ng/mL); test: as above; details: 72 h
[4] = system: DERL-7 (IL-2 2.5 ng/mL); test: as above; details: 72 h
[5] = system: normal primary NK cells, pool 1 (3 donors) (IL-2 2.5 ng/mL); test: as above; details: 72 h
[6] = system: YT (IL-2 2.5 ng/mL); test: as above; details: 72 h
[7] = system: normal primary NK cells, pool 2 (3 donors) (IL-2 2.5 ng/mL); test: as above; details: 72 h
[8] = system: IMC-1 (IL-2 20 ng/mL); test: as above; details: 72 h
[9] = system: KAI3 (IL-2 2.5 ng/mL); test: as above; details: 72 h
[10] = system: NKL (IL-2 2.5 ng/mL); test: as above; details: 72 h
[11] = system: normal primary NK cells, pool 3 (3 donors) (IL-2 2.5 ng/mL); test: as above; details: 72 h
[12] = system: NK-YS (IL-2 2.5 ng/mL); test: as above; details: 72 h
[13] = system: normal primary NK cells, pool 1 (3 donors), resting (IL-2 0 ng/mL); test: as above; details: 72 h
[14] = system: SNK-6 (IL-2 2.5 ng/mL); test: as above; details: 72 h
[15] = system: normal NK cells expanded with K562-aAPC; test: drug sensitivity score (DSS) (DSS units); higher = more sensitive; extreme values may be limits of the assay; details: 72 h; IL-2 2.5 ng/mL
Method: as §1

[16] = system: NK-92 (IL-2 2.5 ng/mL); test: as above; details: 72 h
[17] = system: KHYG-1 (IL-2 2.5 ng/mL); test: as above; details: 72 h
[18] = system: DERL-7 (IL-2 2.5 ng/mL); test: as above; details: 72 h
[19] = system: normal primary NK cells, pool 1 (3 donors) (IL-2 2.5 ng/mL); test: as above; details: 72 h
[20] = system: YT (IL-2 2.5 ng/mL); test: as above; details: 72 h
[21] = system: normal primary NK cells, pool 2 (3 donors) (IL-2 2.5 ng/mL); test: as above; details: 72 h
[22] = system: IMC-1 (IL-2 20 ng/mL); test: as above; details: 72 h
[23] = system: KAI3 (IL-2 2.5 ng/mL); test: as above; details: 72 h
[24] = system: NKL (IL-2 2.5 ng/mL); test: as above; details: 72 h
[25] = system: normal primary NK cells, pool 3 (3 donors) (IL-2 2.5 ng/mL); test: as above; details: 72 h
[26] = system: NK-YS (IL-2 2.5 ng/mL); test: as above; details: 72 h
[27] = system: normal primary NK cells, pool 1 (3 donors), resting (IL-2 0 ng/mL); test: as above; details: 72 h
[28] = system: SNK-6 (IL-2 2.5 ng/mL); test: as above; details: 72 h

O=C(Nc1c[nH]nc1-c1nc2ccc(CN3CCOCC3)cc2[nH]1)NC1CC1 [AT9283] (max concentration tested 1000 nM)
percent inhibition of viability [%]
Details | 0.1 nM | 1 nM | 10 nM | 100 nM | 1000 nM
[1] | 0.7 | -5.39 | 3.23 | 57.8 | 65.9
[2] | 3.17 | 8.69 | 0.17 | 50.1 | 67.7
[3] | 0.97 | -2.56 | 0.97 | 83.4 | 96
[4] | 0.91 | 0.04 | 7.11 | 81.9 | 98.3
[5] | -12.6 | -14 | -13.3 | 12.2 | 12.7
[6] | 0.76 | -0.55 | 3.44 | 18.3 | 51.5
[7] | -12.3 | -10.8 | -12.5 | 0.3 | 9.78
[8] | -3.86 | -1.55 | -6.66 | 65.3 | 100
[9] | -1.1 | -5.66 | 8.51 | 45.9 | 76.8
[10] | -4.9 | -5.16 | -3.64 | 38.5 | 64.4
[11] | -15.9 | -12.2 | -13.3 | -0.35 | 9.39
[12] | -4.25 | -5.41 | -2.2 | 57.1 | 62.4
[13] | -10.1 | -11 | -42.4 | -105 | -157
[14] | 13.2 | 8.33 | 13.9 | 73.1 | 96.5

Details | drug sensitivity score
[15] | 11.1
[16] | 9.6
[17] | 15.2
[18] | 16
[19] | 0.59
[20] | 4.99
[21] | 0
[22] | 13.1
[23] | 9.99
[24] | 8.19
[25] | 0
[26] | 10.4
[27] | 0
[28] | 15.5

C/C(=C\c1csc(C)n1)[C@@H]1C[C@@H]2O[C@]2(C)CCC[C@H](C)[C@H](O)[C@@H](C)C(=O)C(C)(C)[C@@H](O)CC(=O)O1 [Patupilone] (max concentration tested 1000 nM)
percent inhibition of viability [%]
Details | 0.1 nM | 1 nM | 10 nM | 100 nM | 1000 nM
[1] | -5.25 | -3.64 | 53.5 | 57.1 | 55.8
[2] | -21.3 | -3.29 | 72.4 | 99.8 | 97.7
[3] | -3.34 | -8.41 | 25.7 | 104 | 102
[4] | -4.98 | 5.91 | 98.8 | 99.6 | 99.2
[5] | -9.75 | -4.17 | 10.3 | 5.4 | 6.51
[6] | -3.08 | -3.77 | 59.4 | 97.9 | 96.7
[7] | 2.42 | -5.69 | 2.84 | 6.87 | 6.04
[8] | -0.59 | 0.29 | 97 | 99.9 | 99.2
[9] | -13.1 | -4.34 | 44.2 | 60.6 | 50.5
[10] | -9.24 | -10.5 | 34.6 | 93.9 | 90.3
[11] | -13 | -7.53 | 0.9 | 3.45 | 6.6
[12] | -3.81 | -3.75 | 28.9 | 71.3 | 69.9
[13] | -18.5 | -28.5 | 6.09 | 7.49 | 15.2
[14] | 5.42 | 5.23 | 75.5 | 72.6 | 69.5

Details | drug sensitivity score
[15] | 17.1
[16] | 26.2
[17] | 21.9
[18] | 31.1
[19] | 0.14
[20] | 24.7
[21] | 0
[22] | 30.1
[23] | 16.4
[24] | 21.7
[25] | 0
[26] | 17
[27] | 0.55
[28] | 24.3

Cc1ncc(-c2ccnc(Nc3ccc(S(C)(=O)=O)cc3)n2)n1C(C)C [AZD-5438] (max concentration tested 10000 nM)
percent inhibition of viability [%]
Details | 1 nM | 10 nM | 100 nM | 1000 nM | 10000 nM
[1] | 0.15 | -0.53 | -5.24 | 6.05 | 101
[2] | -5.15 | -8.65 | -22.7 | -0.77 | 104
[3] | 0.77 | 0.77 | 0.38 | 45.4 | 105
[4] | -5.59 | 2.74 | -9.82 | 31.4 | 100
[5] | -7.21 | -12.4 | -17.5 | 11.4 | 98
[6] | -1.56 | -0.25 | 0.72 | 24 | 105
[7] | -12.1 | -8.8 | -8.52 | 15.6 | 96.9
[8] | -2.44 | -0.85 | 6.12 | 39.1 | 101
[9] | -3.46 | -9.8 | -5.74 | 41.5 | 102
[10] | -7.07 | -5.93 | -18.1 | 3.89 | 103
[11] | -7.04 | -10.4 | 1.54 | 18.4 | 99.4
[12] | -2.69 | -3.59 | 1.96 | 59.8 | 103
[13] | 4.17 | -8.18 | -42.6 | -99.9 | 91.4
[14] | -9.66 | -5.34 | 6.52 | -1.33 | 58.4

Details | drug sensitivity score
[15] | 6.5
[16] | 5.86
[17] | 11.3
[18] | 10
[19] | 7.3
[20] | 9.28
[21] | 7.94
[22] | 10.5
[23] | 11
[24] | 6.34
[25] | 8.5
[26] | 12.6
[27] | 3.02
[28] | 3.04

CC(C)C[C@H](NC(=O)[C@@H](COC(C)(C)C)NC(=O)[C@H](Cc1ccc(O)cc1)NC(=O)[C@H](CO)NC(=O)[C@H](Cc1c[nH]c2ccccc12)NC(=O)[C@H](Cc1cnc[nH]1)NC(=O)[C@@H]1CCC(=O)N1)C(=O)N[C@@H](CCCNC(=N)N)C(=O)N1CCC[C@H]1C(=O)NNC(N)=O [Goserelin] (max concentration tested 10000 nM)
percent inhibition of viability [%]
Details | 1 nM | 10 nM | 100 nM | 1000 nM | 10000 nM
[1] | -6.58 | -6.46 | -10.9 | -5.02 | 13.2
[2] | -9.16 | -10.9 | -7.22 | -12.8 | 20.7
[3] | -5.2 | -3.78 | -7.91 | -4.87 | 6.57
[4] | 0.68 | -4.54 | -4.5 | -0.44 | -4.02
[5] | 2.55 | -1.49 | 10.9 | 10.5 | -0.05
[6] | -6.11 | -8.09 | -5.17 | -3.36 | 20.9
[7] | -6.03 | -6.27 | -2.35 | 5.13 | 11.8
[8] | -8.43 | -3.76 | -4.51 | -0.15 | 11.2
[9] | -6.09 | -9.54 | -7.05 | 1.42 | 21.1
[10] | -13.2 | -11.5 | -12.2 | 0.66 | 14.8
[11] | -3.77 | -5.54 | 7.78 | 0.8 | -2.53
[12] | -9.13 | -9.66 | -6.69 | -6.01 | 6.61
[13] | -2.06 | 1.54 | 20.9 | 19.8 | 15.1
[14] | -19.4 | -9.63 | -24.4 | -13.4 | -9.52

Details | drug sensitivity score
[15] | 0.04
[16] | 0.34
[17] | 0
[18] | 0
[19] | 0
[20] | 0.49
[21] | 0.22
[22] | 0.01
[23] | 0.84
[24] | 0.26
[25] | 0
[26] | 0
[27] | 5.4
[28] | 0

CS(=O)(=O)N1CCc2c(-c3cnc(N)nc3)nc(N3CCOCC3)nc21 (max concentration tested 10000 nM)
percent inhibition of viability [%]
Details | 1 nM | 10 nM | 100 nM | 1000 nM | 10000 nM
[1] | -0.53 | -3.07 | 3.27 | 24.3 | 52.9
[2] | -5.62 | -3.32 | 15.7 | 40.8 | 55.8
[3] | 4.51 | -0.98 | -0.03 | 9.84 | 39.7
[4] | -3.09 | -4.08 | 3.85 | 42.4 | 85.6
[5] | -5.22 | -10.5 | 16.6 | 24.4 | 35.2
[6] | 2.76 | 1.12 | 1.06 | 26.2 | 75.4
[7] | -2.54 | -3.72 | -0.24 | 21.6 | 34.8
[8] | -0.46 | 0.95 | 2.38 | -7.5 | -15.8
[9] | 7.02 | 7.63 | 15.1 | 29.3 | 51.8
[10] | 14.7 | 9.02 | 17.7 | 40.3 | 71.3
[11] | -11.3 | -9.29 | 13 | 19.5 | 28.9
[12] | 4.61 | 0.28 | 4.3 | 32.1 | 62.7
[13] | -25.7 | -37.9 | 3.84 | -1.15 | 14.8
[14] | -21.9 | -10.1 | -16.1 | 5.8 | 44.2

Details | drug sensitivity score
[15] | 5.59
[16] | 9.23
[17] | 3.5
[18] | 9.77
[19] | 5.87
[20] | 7.87
[21] | 4.2
[22] | 0
[23] | 7.4
[24] | 10.4
[25] | 4.2
[26] | 7.16
[27] | 0.17
[28] | 3.23
